Results on nine molecules are retold here after patent US20240376097A1, “BCL-2 Inhibitor” (BeiGene Ltd., priority 2020, published 2024).

Molecules are shown by their SMILES. Like-named read-outs stand apart in the source and are kept apart here.

For series [1], the target named is Recombinant human Bcl-2 protein (Homo sapiens (Human), UniProt P10415). Kind of series: Bcl-2 TR-FRET Assay. In kind it is binding. An outline of the steps: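 Compounds were pre-incubated with 0.05 nM recombinant Bcl-2 for 0.5 h at room temperature in potassium phosphate buffer, pH 7.5. FITC-Bak peptide (0.5 nM) and Tb-cryptate antibody were then added for 1 h. Percent inhibition from TR-FRET signals gave IC50 values.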
(TR-FRET usually uses a lanthanide donor and a delayed reading to cut background.)

Series [2] can be described thus: Metabolic Stability Study, liver microsome incubation (mouse). Type of series: in vitro ADME. Conditions: mouse liver microsomes 0.5 mg/mL, 1 μM compound, NADPH; for half-life at 1 μM: NA^# = very stable, beyond the detection limits, read-out: T1/2 (min) mouse; for microsomal CLint at 1 μM: read-out: CLint (μL × min^−1 × mg^−1) mouse. The protocol: (§1) Biological Example: Metabolic Stability Study
(§2) The metabolic stability of some compounds was evaluated by using the liver microsome incubation system in vitro. Briefly, the test compounds at 1 μM, were incubated with 0.5 mg/mL liver microsomes from different species (human, dog, rat and mouse) with an NADPH regenerating system at 37° C. Samples were quenched at three time points (0, 30, 60 min) with organic solvent containing internal standards, and the supernatant was analyzed for parent loss via LC-MS/MS. Midazolam was used as the positive control to validate the incubation system.
(§3) where Cprotein is the microsomal protein concentration in the incubation system.
(§4) The value of CLint and T1/2 of Example F132b in WO2019210818 and representative compounds of the disclosure were determined, and the results are shown in Table 5.

The nature of series [3]: Metabolic Stability Study, liver microsome incubation (human). In kind it is in vitro ADME. Conditions: human liver microsomes 0.5 mg/mL, 1 μM compound, NADPH; for half-life at 1 μM: NA^# = very stable, beyond the detection limits, read-out: T1/2 (min) Human; for microsomal CLint at 1 μM: read-out: CLint (μL × min^−1 × mg^−1) Human. The method, then:
as §1, §2, §3, §4

Series [4] addresses recombinant human Bcl-2 D103Y protein (Homo sapiens (Human), UniProt P10415, D103Y). Kind of series: Bcl-2-D103Y Biochemical Assay (TR-FRET). In kind it is binding. Conditions: for IC50: TR-FRET, FITC labeled Bak peptide; for Ratio of Bcl-2 D103Y/Bcl-2 WT: ratio of IC50. An outline of the steps:
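Recombinant human Bcl-2 D103Y binding to its ligand measured by TR-FRET (ex 337 nm, em 490/520 nm) with increasing compound concentrations. Percent inhibition from the 490/520 nm ratio; IC50 from four-parameter logistic fit.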

Series [5] relates to RS4;11 (BCL-2 dependent acute lymphoblastic leukemia cell line). Kind of series: RS4;11 Cell Proliferation Assay. In kind it is cell-based. Conditions: Homo sapiens, RS4-11, RS4;11 cells, read-out: Cellular proliferation assay (IC50, nM) RS4. An outline of the steps:
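RS4;11 cells, 50,000 per well in RPMI-1640 with 10% FBS, treated 48 h at 37 °C with a 10-point dilution series topping at 1 μM. Viability read by CellTiter-Glo ATP luminescence; mean IC50 reported.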

For series [6], the system named is recombinant human Bcl-2-G101V protein. Kind of series: Bcl-2-G101V TR-FRET Assay. In kind it is binding. Particulars: ratio of biochemical IC50 Bcl-2 G101V / Bcl-2 WT. An outline of the steps:
(§5)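 Percent inhibition of the Bcl-2-G101V–ligand interaction was computed from the 490 nm to 520 nm emission ratio after 337 nm excitation, over increasing compound concentrations; a four-parameter logistic fit gave IC50.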

Series [7] addresses recombinant human Bcl-2-G101V protein (Homo sapiens (Human), UniProt P10415, G101V). Kind of series: Bcl-2-G101V TR-FRET Assay. Conditions: Bcl-2 G101V mutant, TR-FRET; read-out: Biochemical assay (IC50, nM) Bcl-2 G101V. Type of series: binding. The method, boiled down:
as §5

The test system of series [8] is BCL-2 G101V knock-in cell line H96 (derive from RS4;11). Kind of series: Bcl 2-G101V Knock-In RS4;11 Cell Proliferation Assay. Particulars: Homo sapiens, RS4;11 Bcl-2 G101V knock-in clone H96, 48 hrs, CellTiter-GLO, read-out: Cellular proliferation assay (IC50, nM) RS4. In kind it is cell-based. An outline of the steps: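 H96, a CRISPR-generated RS4;11 clone carrying BCL2-G101V knock-in (WES/RNA-seq validated), seeded 50,000 per well and exposed 48 h at 37 °C to 10-point dilutions topping at 1 or 10 μM. Viability by CellTiter-Glo luminescence; mean IC50.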
A general note: In ATP-based viability assays light output follows the ATP content of the culture.

The mark [9] stands for this setting: wild type Bcl-2, unit inferred, read-out: Bcl-2 WT.
Setting [10] is: Bcl-2 wild type, TR-FRET, read-out: Biochemical assay (IC50, nM) Bcl-2 WT.

Turning to `COc1ccc(CN2CCN(C3CC4(CCN(c5ccc(C(=O)NS(=O)(=O)c6ccc(NC[C@H]7COCCO7)c([N+](=O)[O-])c6)c(Oc6cnc7[nH]ccc7c6)c5)CC4)C3)[C@H](c3ccccc3C(C)C)C2)cc1` (single isomer, unassigned) [Example 33, N-((4-((((S)-1,4-dioxan-2-yl)methyl)amino)-3-nitrophenyl)sulfonyl)-2-((1H-pyrrolo[2,3-b]pyridin-5-yl)oxy)-4-(2-((R or S)-2-(2-isopropylphenyl)-4-(4-methoxybenzyl)piperazin-1-yl)-7-azaspiro[3.5]nonan-7-yl)benzamide], in series [1] (setting [9]), the IC50 came to 0.038 nM. In series [2], the half-life at 1 μM stood at 233 min and the microsomal CLint at 1 μM turned out to be 5.9 µL/min/mg. For the same molecule, in series [3], the half-life at 1 μM was 1820 min and the microsomal CLint at 1 μM was 0.8 µL/min/mg. Besides, in series [4], the IC50 is 0.094 nM and the “Ratio of Bcl-2 D103Y/Bcl-2 WT” value turned out to be 2.5.
As to `CC(C)c1ccccc1C1CC(Cc2ccccc2)CCN1C1CC2(CCN(c3ccc(C(=O)NS(=O)(=O)c4ccc(NC[C@H]5CC[C@](C)(O)CC5)c([N+](=O)[O-])c4)c(Oc4cnc5[nH]ccc5c4)c3)CC2)C1` (stereo partly shown) [Example 67, 2-((1H-pyrrolo[2,3-b]pyridin-5-yl)oxy)-4-(2-(4-benzyl-2-(2-isopropylphenyl)piperidin-1-yl)-7-azaspiro[3.5]nonan-7-yl)-N-((4-((((1r,4r)-4-hydroxy-4-methylcyclohexyl)methyl)amino)-3-nitrophenyl)sulfonyl)benzamide], in series [2], the half-life at 1 μM was found to be 272 min and the microsomal CLint at 1 μM came out at 5.1 µL/min/mg. In series [3], the half-life at 1 μM turned out to be 309 min and the microsomal CLint at 1 μM worked out at 4.5 µL/min/mg.
With `COc1ccc(CN2CCN(C3CC4(C3)CN(c3ccc(C(=O)NS(=O)(=O)c5ccc(NCC67CC8CC(C6)CC(OC)(C8)C7)c([N+](=O)[O-])c5)c(Oc5cnc6[nH]cc(F)c6c5)c3)C4)[C@H](c3ccccc3C(C)C)C2)cc1` [Example 357, 2-((3-fluoro-1H-pyrrolo[2,3-b]pyridin-5-yl)oxy)-4-(6-((R)-2-(2-isopropylphenyl)-4-(4-methoxybenzyl)piperazin-1-yl)-2-azaspiro[3.3]heptan-2-yl)-N-((4-((((1r,5R,7S)-3-methoxyadamantan-1-yl)methyl)amino)-3-nitrophenyl)sulfonyl) benzamide], the IC50 in series [1] (setting [10]) amounted to 0.57 nM; in series [1] (setting [9]), 0.57 nM; in series [4], 1 nM; in series [5], 0.19 nM; in series [7], 1.4 nM; in series [8], 1 nM. In addition, the “Ratio of Bcl-2 D103Y/Bcl-2 WT” value in series [4] amounted to 1.8. For the same molecule, the “Ratio of Bcl-2 G101V/WT” value in series [6] was 2.5.
With `COc1cc(CN2CCN(C3CC4(C3)CN(c3ccc(C(=O)NS(=O)(=O)c5ccc(NC[C@H]6CC[C@](C)(O)CC6)c([N+](=O)[O-])c5)c(Oc5cnc6[nH]cc(F)c6c5)c3)C4)[C@H](c3ccccc3C(C)C)C2)ccc1N1CC(OC)C1` [Example 359, 2-((3-fluoro-1H-pyrrolo[2,3-b]pyridin-5-yl)oxy)-N-((4-((((1r,4r)-4-hydroxy-4-methylcyclohexyl)methyl)amino)-3-nitrophenyl)sulfonyl)-4-(6-((R)-2-(2-isopropylphenyl)-4-(3-methoxy-4-(3-methoxyazetidin-1-yl)benzyl)piperazin-1-yl)-2-azaspiro[3.3]heptan-2-yl)benzamide], the IC50 in series [1] (setting [10]) came to 0.19 nM; in series [1] (setting [9]), 0.19 nM; in series [4], 0.44 nM; in series [5] it was 0.16 nM; in series [7], 0.64 nM; in series [8], 0.63 nM. In addition, the “Ratio of Bcl-2 D103Y/Bcl-2 WT” value in series [4] was 2.4. In series [6], the “Ratio of Bcl-2 G101V/WT” value worked out at 3.4.
As to `COc1cc(CN2CCN(C3CC4(C3)CN(c3ccc(C(=O)NS(=O)(=O)c5ccc(NC[C@H]6CC[C@](C)(O)CC6)c([N+](=O)[O-])c5)c(Oc5cnc6[nH]cc(F)c6c5)c3)C4)[C@H](c3ccccc3C(C)C)C2)ccc1NC(C)C` [Example 360], the IC50 was 0.23 nM in series [1] (setting [10]); 0.23 nM in series [1] (setting [9]); 0.31 nM in series [4]; 0.05 nM in series [5]; 0.5 nM in series [7]; 0.11 nM in series [8]. Moreover, the “Ratio of Bcl-2 D103Y/Bcl-2 WT” value in series [4] is listed as 1.4. For the same molecule, the “Ratio of Bcl-2 G101V/WT” value in series [6] turned out to be 2.2.
`CC(C)c1ccccc1[C@@H]1CN(Cc2ccc(C3COC3)cc2)CCN1C1CC2(C1)CN(c1ccc(C(=O)NS(=O)(=O)c3ccc(NC[C@H]4CC[C@](C)(O)CC4)c([N+](=O)[O-])c3)c(Oc3cnc4[nH]cc(F)c4c3)c1)C2` [Example 362, 2-((3-fluoro-1H-pyrrolo[2,3-b]pyridin-5-yl)oxy)-N-((4-((((1r,4r)-4-hydroxy-4-methylcyclohexyl)methyl)amino)-3-nitrophenyl)sulfonyl)-4-(6-((R)-2-(2-isopropylphenyl)-4-(4-(oxetan-3-yl)benzyl)piperazin-1-yl)-2-azaspiro[3.3]heptan-2-yl) benzamide]: the IC50 in series [1] (setting [10]) is 0.07 nM; in series [1] (setting [9]) it was 0.069 nM; in series [4] it was 0.095 nM; in series [5], 0.08 nM; in series [7], 0.14 nM; in series [8], 0.17 nM. Moreover, the “Ratio of Bcl-2 D103Y/Bcl-2 WT” value in series [4] turned out to be 1.4. The “Ratio of Bcl-2 G101V/WT” value in series [6] is on record as 2.
As to `COc1ccc(CN2CCN(C3CC4(C3)CN(c3ccc(C(=O)NS(=O)(=O)c5ccc(NC[C@H]6CC[C@](C)(O)CC6)c([N+](=O)[O-])c5)c(Oc5cnc6[nH]cc(F)c6c5)c3)C4)[C@H](c3ccccc3C(C)C)C2)cc1OC1CC1` [Example 364, 4-(6-((R)-4-(3-cyclopropoxy-4-methoxybenzyl)-2-(2-isopropylphenyl)piperazin-1-yl)-2-azaspiro[3.3]heptan-2-yl)-2-((3-fluoro-1H-pyrrolo[2,3-b]pyridin-5-yl)oxy)-N-((4-((((1r,4r)-4-hydroxy-4-methylcyclohexyl)methyl)amino)-3-nitrophenyl)sulfonyl) benzamide], the IC50 in series [1] (setting [10]) is 0.14 nM; in series [4], 0.14 nM; in series [5] it was 0.13 nM; in series [7], 0.39 nM; in series [8], 0.2 nM. The “Ratio of Bcl-2 D103Y/Bcl-2 WT” value in series [4] worked out at 1.0. In addition, the “Ratio of Bcl-2 G101V/WT” value in series [6] turned out to be 2.9.
With `CC(C)c1ccccc1[C@@H]1CN(Cc2ccc(OC3CC3)cc2)CCN1C1CC2(C1)CN(c1ccc(C(=O)NS(=O)(=O)c3ccc(NC[C@H]4CC[C@](C)(O)CC4)c([N+](=O)[O-])c3)c(Oc3cnc4[nH]cc(F)c4c3)c1)C2` [Example 365], the IC50 came out at 0.46 nM in series [1] (setting [10]); 0.51 nM in series [4]; 0.12 nM in series [5]; 1.3 nM in series [7]; 0.26 nM in series [8]. In series [4], the “Ratio of Bcl-2 D103Y/Bcl-2 WT” value stood at 1.1. Besides, the “Ratio of Bcl-2 G101V/WT” value in series [6] was determined as 2.9.
With `COc1cc(CN2CCN(C3CC4(C3)CN(c3ccc(C(=O)NS(=O)(=O)c5ccc(NC[C@H]6CC[C@](C)(O)CC6)c([N+](=O)[O-])c5)c(Oc5cnc6[nH]cc(F)c6c5)c3)C4)[C@H](c3ccccc3C(C)C)C2)ccc1C1CCOCC1` [Example 367], the IC50 in series [1] (setting [10]) came out at 0.35 nM; in series [4] it was 0.4 nM; in series [5] it was 0.11 nM; in series [7] it was 0.9 nM; in series [8], 0.3 nM. Besides, the “Ratio of Bcl-2 D103Y/Bcl-2 WT” value in series [4] stood at 1.2. Also, the “Ratio of Bcl-2 G101V/WT” value in series [6] stood at 2.6.
